{"source": "ChEMBL document CHEMBL1201862", "about": "“PubChem BioAssay data set” (2004)", "experiment_in_all_cases": "growth of human tumour cells (NCI), 48 h", "key": {"[1]": {"test_system": "NCI/ADR-RES"}, "[2]": {"test_system": "SR"}, "[3]": {"test_system": "786-0"}, "[4]": {"test_system": "UO-31"}, "[5]": {"test_system": "CCRF-CEM"}, "[6]": {"test_system": "HL-60"}, "[7]": {"test_system": "RXF 393"}, "[8]": {"test_system": "BT-549"}, "[9]": {"test_system": "NCI-H460"}, "[10]": {"test_system": "TK-10"}, "[11]": {"test_system": "KM12"}, "[12]": {"test_system": "CAKI-1"}, "[13]": {"test_system": "HCC 2998"}, "[14]": {"test_system": "SF-268"}, "[15]": {"test_system": "SF-295"}, "[16]": {"test_system": "HCT-116"}, "[17]": {"test_system": "RPMI-8226"}, "[18]": {"test_system": "HCT-15"}, "[19]": {"test_system": "EKVX"}, "[20]": {"test_system": "M14"}, "[21]": {"test_system": "SNB-75"}, "[22]": {"test_system": "COLO 205"}, "[23]": {"test_system": "SK-MEL-28"}, "[24]": {"test_system": "DU-145"}, "[25]": {"test_system": "SW-620"}, "[26]": {"test_system": "A549"}, "[27]": {"test_system": "SNB-19"}, "[28]": {"test_system": "HOP-92"}, "[29]": {"test_system": "MCF7"}, "[30]": {"test_system": "OVCAR-3"}, "[31]": {"test_system": "OVCAR-8"}, "[32]": {"test_system": "OVCAR-5"}, "[33]": {"test_system": "SK-MEL-2"}, "[34]": {"test_system": "MDA-MB-435"}, "[35]": {"test_system": "PC-3"}, "[36]": {"test_system": "OVCAR-4"}, "[37]": {"test_system": "SN12C"}, "[38]": {"test_system": "MDA-MB-231"}, "[39]": {"test_system": "SK-MEL-5"}, "[40]": {"test_system": "UACC-62"}, "[41]": {"test_system": "K562"}, "[42]": {"test_system": "SF-539"}, "[43]": {"test_system": "LOX IMVI"}, "[44]": {"test_system": "NCI-H226"}, "[45]": {"test_system": "NCI-H522"}, "[46]": {"test_system": "Hs-578T"}, "[47]": {"test_system": "U-251"}, "[48]": {"test_system": "MOLT-4"}, "[49]": {"test_system": "UACC-257"}, "[50]": {"test_system": "HT-29"}, "[51]": {"test_system": "T47D"}, "[52]": {"test_system": "MDA-N"}, "[53]": {"test_system": "HOP-62"}, "[54]": {"test_system": "SK-OV-3"}, "[55]": {"test_system": "ACHN"}, "[56]": {"test_system": "IGROV-1"}, "[57]": {"test_system": "Malme-3M"}, "[58]": {"test_system": "NCI-H23"}}, "note": "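Assay format: 96-well plates, 48-hour exposure. GI50: concentration for 50% inhibition of growth.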 Activity calls are given as the source filed them. Rule as the data show it: active = GI50 up to about 1.1 µM and inactive = higher.", "data": [{"smiles": "COc1cccc(C(C#N)NC23CC4CC(CC(C4)C2)C3)c1", "note": "(stereo not drawn)", "values": [{"measurement": "GI50", "setting": "[1]", "value": "> 100 µM (inactive)"}, {"measurement": "GI50", "setting": "[2]", "value": "> 100 µM (inactive)"}, {"measurement": "GI50", "setting": "[3]", "value": "> 100 µM (inactive)"}, {"measurement": "GI50", "setting": "[4]", "value": "> 100 µM (inactive)"}, {"measurement": "GI50", "setting": "[5]", "value": "> 100 µM (inactive)"}, {"measurement": "GI50", "setting": "[6]", "value": "> 100 µM (inactive)"}, {"measurement": "GI50", "setting": "[7]", "value": "> 100 µM (inactive)"}, {"measurement": "GI50", "setting": "[8]", "value": "> 100 µM (inactive)"}, {"measurement": "GI50", "setting": "[9]", "value": "> 100 µM (inactive)"}, {"measurement": "GI50", "setting": "[10]", "value": "> 100 µM (inactive)"}, {"measurement": "GI50", "setting": "[11]", "value": "> 100 µM (inactive)"}, {"measurement": "GI50", "setting": "[12]", "value": "> 100 µM (inactive)"}, {"measurement": "GI50", "setting": "[13]", "value": "> 100 µM (inactive)"}, {"measurement": "GI50", "setting": "[14]", "value": "> 100 µM (inactive)"}, {"measurement": "GI50", "setting": "[15]", "value": "> 100 µM (inactive)"}, {"measurement": "GI50", "setting": "[16]", "value": "> 100 µM (inactive)"}, {"measurement": "GI50", "setting": "[17]", "value": "> 100 µM (inactive)"}, {"measurement": "GI50", "setting": "[18]", "value": "> 100", "unit": "µM"}, {"measurement": "GI50", "setting": "[19]", "value": "85.5 µM (inactive)"}, {"measurement": "GI50", "setting": "[20]", "value": "> 100 µM (inactive)"}, {"measurement": "GI50", "setting": "[21]", "value": "> 100 µM (inactive)"}, {"measurement": "GI50", "setting": "[22]", "value": "> 100 µM (inactive)"}, {"measurement": "GI50", "setting": "[23]", "value": "> 100 µM (inactive)"}, {"measurement": "GI50", "setting": "[24]", "value": "> 100 µM (inactive)"}, {"measurement": "GI50", "setting": "[25]", "value": "> 100 µM (inactive)"}, {"measurement": "GI50", "setting": "[26]", "value": "> 100 µM (inactive)"}, {"measurement": "GI50", "setting": "[27]", "value": "> 100 µM (inactive)"}, {"measurement": "GI50", "setting": "[28]", "value": "> 100 µM (inactive)"}, {"measurement": "GI50", "setting": "[29]", "value": "> 100 µM (inactive)"}, {"measurement": "GI50", "setting": "[30]", "value": "> 100 µM (inactive)"}, {"measurement": "GI50", "setting": "[31]", "value": "> 100 µM (inactive)"}, {"measurement": "GI50", "setting": "[32]", "value": "> 100 µM (inactive)"}, {"measurement": "GI50", "setting": "[33]", "value": "> 100 µM (inactive)"}, {"measurement": "GI50", "setting": "[34]", "value": "> 100 µM (inactive)"}, {"measurement": "GI50", "setting": "[35]", "value": "> 100 µM (inactive)"}, {"measurement": "GI50", "setting": "[36]", "value": "> 100 µM (inactive)"}, {"measurement": "GI50", "setting": "[37]", "value": "> 100 µM (inactive)"}, {"measurement": "GI50", "setting": "[38]", "value": "> 100 µM (inactive)"}, {"measurement": "GI50", "setting": "[39]", "value": "> 100 µM (inactive)"}, {"measurement": "GI50", "setting": "[40]", "value": "> 100 µM (inactive)"}, {"measurement": "GI50", "setting": "[41]", "value": "> 100 µM (inactive)"}, {"measurement": "GI50", "setting": "[42]", "value": "> 100 µM (inactive)"}, {"measurement": "GI50", "setting": "[43]", "value": "> 100 µM (inactive)"}, {"measurement": "GI50", "setting": "[44]", "value": "> 100 µM (inactive)"}, {"measurement": "GI50", "setting": "[45]", "value": "> 100 µM (inactive)"}, {"measurement": "GI50", "setting": "[46]", "value": "> 100 µM (inactive)"}, {"measurement": "GI50", "setting": "[47]", "value": "> 100 µM (inactive)"}, {"measurement": "GI50", "setting": "[48]", "value": "> 100 µM (inactive)"}, {"measurement": "GI50", "setting": "[49]", "value": "> 100 µM (inactive)"}, {"measurement": "GI50", "setting": "[50]", "value": "> 100 µM (inactive)"}, {"measurement": "GI50", "setting": "[51]", "value": "> 100 µM (inactive)"}, {"measurement": "GI50", "setting": "[52]", "value": "> 100 µM (inactive)"}, {"measurement": "GI50", "setting": "[53]", "value": "> 100 µM (inactive)"}, {"measurement": "GI50", "setting": "[54]", "value": "> 100 µM (inactive)"}, {"measurement": "GI50", "setting": "[55]", "value": "> 100 µM (inactive)"}, {"measurement": "GI50", "setting": "[56]", "value": "> 100 µM (inactive)"}, {"measurement": "GI50", "setting": "[57]", "value": "> 100 µM (inactive)"}, {"measurement": "GI50", "setting": "[58]", "value": "> 100 µM (inactive)"}]}]}
